From ChEMBL document CHEMBL1201862, “PubChem BioAssay data set” (2004)
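Compound exposure: 48 hours, 5 concentrations, 96-well plates. GI50 is the concentration that inhibits growth by half.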 Calls of active or inactive are those of the source. Cut-off read from the data, not from the text of the source: active = GI50 up to about 1.1 µM and inactive = higher.

Columns and labels:
Test in all cases: NCI anticancer screen, dose series, 48 h
Hs-578T = tested on: Hs-578T
ACHN = tested on: ACHN
MCF7 = tested on: MCF7
HOP-62 = tested on: HOP-62
EKVX = tested on: EKVX
SR = tested on: SR
SN12C = tested on: SN12C
A498 = tested on: A498
IGROV-1 = tested on: IGROV-1
HCT-116 = tested on: HCT-116
HCC 2998 = tested on: HCC 2998
Malme-3M = tested on: Malme-3M
TK-10 = tested on: TK-10
OVCAR-8 = tested on: OVCAR-8
UACC-62 = tested on: UACC-62
CCRF-CEM = tested on: CCRF-CEM
M14 = tested on: M14
KM12 = tested on: KM12
786-0 = tested on: 786-0
BT-549 = tested on: BT-549
SK-OV-3 = tested on: SK-OV-3
MDA-N = tested on: MDA-N
NCI-H23 = tested on: NCI-H23
NCI-H226 = tested on: NCI-H226
MDA-MB-435 = tested on: MDA-MB-435
HCT-15 = tested on: HCT-15
SNB-19 = tested on: SNB-19
RXF 393 = tested on: RXF 393
SNB-75 = tested on: SNB-75
HOP-92 = tested on: HOP-92
MOLT-4 = tested on: MOLT-4
OVCAR-5 = tested on: OVCAR-5
T47D = tested on: T47D
MDA-MB-231 = tested on: MDA-MB-231
SF-295 = tested on: SF-295
SF-268 = tested on: SF-268
PC-3 = tested on: PC-3
OVCAR-4 = tested on: OVCAR-4
SK-MEL-5 = tested on: SK-MEL-5
SK-MEL-2 = tested on: SK-MEL-2
SF-539 = tested on: SF-539
UO-31 = tested on: UO-31
HL-60 = tested on: HL-60
DU-145 = tested on: DU-145
U-251 = tested on: U-251
OVCAR-3 = tested on: OVCAR-3
NCI-H522 = tested on: NCI-H522
COLO 205 = tested on: COLO 205
A549 = tested on: A549
UACC-257 = tested on: UACC-257
CAKI-1 = tested on: CAKI-1
NCI-H460 = tested on: NCI-H460
SW-620 = tested on: SW-620
NCI/ADR-RES = tested on: NCI/ADR-RES
K562 = tested on: K562
SK-MEL-28 = tested on: SK-MEL-28
LOX IMVI = tested on: LOX IMVI
HT-29 = tested on: HT-29
RPMI-8226 = tested on: RPMI-8226

Oc1ccc2ccccc2c1/N=N/c1cccc2ccccc12
GI50 (Hs-578T): 21.1 µM (inactive)
GI50 (ACHN): > 100 µM (inactive)
GI50 (MCF7): > 100 µM (inactive)
GI50 (HOP-62): 48.5 µM (inactive)
GI50 (EKVX): 84.9 µM (inactive)
GI50 (SR): > 100 µM (inactive)
GI50 (SN12C): > 100 µM (inactive)
GI50 (A498): > 100 µM (inactive)
GI50 (IGROV-1): 49.9 µM (inactive)
GI50 (HCT-116): > 100 µM (inactive)
GI50 (HCC 2998): > 100 µM (inactive)
GI50 (Malme-3M): 91.6 µM (inactive)
GI50 (TK-10): > 100 µM (inactive)
GI50 (OVCAR-8): 44.1 µM (inactive)
GI50 (UACC-62): > 100 µM (inactive)
GI50 (CCRF-CEM): > 100 µM (inactive)
GI50 (M14): > 100 µM (inactive)
GI50 (KM12): > 100 µM (inactive)
GI50 (786-0): 66.1 µM (inactive)
GI50 (BT-549): > 100 µM (inactive)
GI50 (SK-OV-3): 52.6 µM (inactive)
GI50 (MDA-N): > 100 µM (inactive)
GI50 (NCI-H23): > 100 µM (inactive)
GI50 (NCI-H226): > 100 µM (inactive)
GI50 (MDA-MB-435): > 100 µM (inactive)
GI50 (HCT-15): > 100 µM
GI50 (SNB-19): 47.6 µM (inactive)
GI50 (RXF 393): 65.3 µM (inactive)
GI50 (SNB-75): 23.6 µM (inactive)
GI50 (HOP-92): > 100 µM (inactive)
GI50 (MOLT-4): > 100 µM (inactive)
GI50 (OVCAR-5): > 100 µM (inactive)
GI50 (T47D): > 100 µM (inactive)
GI50 (MDA-MB-231): 49.9 µM (inactive)
GI50 (SF-295): > 100 µM (inactive)
GI50 (SF-268): 55.5 µM (inactive)
GI50 (PC-3): > 100 µM (inactive)
GI50 (OVCAR-4): > 100 µM (inactive)
GI50 (SK-MEL-5): > 100 µM (inactive)
GI50 (SK-MEL-2): > 100 µM (inactive)
GI50 (SF-539): 24.3 µM (inactive)
GI50 (UO-31): > 100 µM (inactive)
GI50 (HL-60): > 100 µM (inactive)
GI50 (DU-145): > 100 µM (inactive)
GI50 (U-251): 50.6 µM (inactive)
GI50 (OVCAR-3): > 100 µM (inactive)
GI50 (NCI-H522): 52.4 µM (inactive)
GI50 (COLO 205): > 100 µM (inactive)
GI50 (A549): > 100 µM (inactive)
GI50 (UACC-257): > 100 µM (inactive)
GI50 (CAKI-1): > 100 µM (inactive)
GI50 (NCI-H460): > 100 µM (inactive)
GI50 (SW-620): > 100 µM (inactive)
GI50 (NCI/ADR-RES): > 100 µM (inactive)
GI50 (K562): > 100 µM (inactive)

CC(=O)OC[C@@H]1[C@H]2CC[C@]3(C)[C@@H](OC(C)=O)CC[C@H]3[C@@H]2CC[C@H]1C1(C)SCCS1
GI50 (Hs-578T): > 25 µM (inactive)
GI50 (SK-MEL-28): > 25 µM (inactive)
GI50 (ACHN): > 25 µM (inactive)
GI50 (MCF7): > 25 µM (inactive)
GI50 (HOP-62): > 25 µM (inactive)
GI50 (EKVX): > 25 µM (inactive)
GI50 (SR): > 25 µM (inactive)
GI50 (SN12C): > 25 µM (inactive)
GI50 (A498): > 25 µM (inactive)
GI50 (LOX IMVI): > 25 µM (inactive)
GI50 (IGROV-1): > 25 µM (inactive)
GI50 (HCT-116): > 25 µM (inactive)
GI50 (HCC 2998): > 25 µM (inactive)
GI50 (Malme-3M): > 25 µM (inactive)
GI50 (TK-10): > 25 µM (inactive)
GI50 (OVCAR-8): > 25 µM (inactive)
GI50 (HT-29): > 25 µM (inactive)
GI50 (CCRF-CEM): > 25 µM (inactive)
GI50 (M14): > 25 µM (inactive)
GI50 (KM12): > 25 µM (inactive)
GI50 (786-0): > 25 µM (inactive)
GI50 (BT-549): > 25 µM (inactive)
GI50 (MDA-N): > 25 µM (inactive)
GI50 (NCI-H23): > 25 µM (inactive)
GI50 (NCI-H226): > 25 µM (inactive)
GI50 (MDA-MB-435): > 25 µM (inactive)
GI50 (HCT-15): > 25 µM
GI50 (SNB-19): > 25 µM (inactive)
GI50 (RXF 393): > 25 µM (inactive)
GI50 (SNB-75): > 25 µM (inactive)
GI50 (HOP-92): > 25 µM (inactive)
GI50 (MOLT-4): > 25 µM (inactive)
GI50 (OVCAR-5): > 25 µM (inactive)
GI50 (T47D): > 25 µM (inactive)
GI50 (MDA-MB-231): > 25 µM (inactive)
GI50 (RPMI-8226): > 25 µM (inactive)
GI50 (SF-295): > 25 µM (inactive)
GI50 (SF-268): > 25 µM (inactive)
GI50 (PC-3): > 25 µM (inactive)
GI50 (OVCAR-4): > 25 µM (inactive)
GI50 (SK-MEL-5): 23.2 µM (inactive)
GI50 (SF-539): > 25 µM (inactive)
GI50 (UO-31): > 25 µM (inactive)
GI50 (HL-60): > 25 µM (inactive)
GI50 (DU-145): > 25 µM (inactive)
GI50 (U-251): > 25 µM (inactive)
GI50 (OVCAR-3): > 25 µM (inactive)
GI50 (NCI-H522): > 25 µM (inactive)
GI50 (COLO 205): > 25 µM (inactive)
GI50 (A549): > 25 µM (inactive)
GI50 (UACC-257): > 25 µM (inactive)
GI50 (CAKI-1): > 25 µM (inactive)
GI50 (NCI-H460): > 25 µM (inactive)
GI50 (SW-620): > 25 µM (inactive)
GI50 (NCI/ADR-RES): > 25 µM (inactive)
GI50 (K562): > 25 µM (inactive)
